PubChem BioAssay (NCI)
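Method: 48-hour compound exposure of cells in 96-well plates, five concentrations, linear interpolation of endpoints. GI50: concentration for 50% inhibition of growth. The concentration for full growth arrest is given as TGI.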

Key:
Experiment in all cases: DTP human tumour cell line panel, 48 h
BT-549 breast = tested on: BT-549 breast
DU-145 prostate = tested on: DU-145 prostate
HCC-2998 colon = tested on: HCC-2998 colon
IGROV1 ovarian = tested on: IGROV1 ovarian
MOLT-4 leukemia = tested on: MOLT-4 leukemia
NCI-H522 lung = tested on: NCI-H522 lung
RPMI-8226 leukemia = tested on: RPMI-8226 leukemia
SF-295 CNS = tested on: SF-295 CNS
SF-539 CNS = tested on: SF-539 CNS
SK-OV-3 ovarian = tested on: SK-OV-3 ovarian

| Compound | GI50 (BT-549 breast) [µM] | TGI (BT-549 breast) [µM] | GI50 (DU-145 prostate) [µM] | TGI (DU-145 prostate) [µM] | GI50 (HCC-2998 colon) [µM] | TGI (HCC-2998 colon) [µM] | GI50 (IGROV1 ovarian) [µM] | TGI (IGROV1 ovarian) [µM] | GI50 (MOLT-4 leukemia) [µM] | TGI (MOLT-4 leukemia) [µM] | GI50 (NCI-H522 lung) [µM] | TGI (NCI-H522 lung) [µM] | GI50 (RPMI-8226 leukemia) [µM] | TGI (RPMI-8226 leukemia) [µM] | GI50 (SF-295 CNS) [µM] | TGI (SF-295 CNS) [µM] | GI50 (SF-539 CNS) [µM] | TGI (SF-539 CNS) [µM] | GI50 (SK-OV-3 ovarian) [µM] | TGI (SK-OV-3 ovarian) [µM] |
| --- | --- | --- | --- | --- | --- | --- | --- | --- | --- | --- | --- | --- | --- | --- | --- | --- | --- | --- | --- | --- |
| N#C/C(=C\c1ccc(Br)cc1)n1nnc2ccccc21 | 0.566 | 4.85 | 1.23 | 3.31 | 1.51 | 3.34 | 0.317 | 1.43 | 1.48 | 11.4 | 0.191 | 1.25 | 0.475 | 3.31 | 1.18 | 8.9 | 0.513 | 1.86 | 5.11 | 22.1 |
| COc1ccccc1-c1cc(=O)c2ccc(OC)c(OC)c2o1 |  | > 100 |  | > 100 |  | > 100 |  | > 100 |  | > 100 |  | > 100 |  | > 100 |  | > 100 |  | > 100 |  | > 100 |
| COc1ccc(N(/C=C/C(=O)C(F)(F)F)CC(=O)c2ccc(Cl)c(Cl)c2)cc1 | 7.57 | 22 | 11.3 | 24.6 | 18.5 | 32.5 | 22.8 | 60.9 | 3.9 | > 100 | 19.4 | 43.7 | 5.56 | 56.6 | 14.5 | 28.6 | 16.1 | 30.3 | 20.1 | 39.7 |
| NC1=Nc2cc(OCCCN3Cc4ccccc4C3)c(OCC3CC3)cc2C12CCCC2 | 2.26 | 7.84 | 4.44 | 16.2 | 1.62 | 3.08 | 4.17 | 17.2 | 2.17 | 6.22 | 2.25 | 4.87 | 1.75 | 4.51 | 1.64 | 3.42 | 1.7 | 3.17 | 4.48 | 17.4 |
| C=C1C(=O)OC2CC(C)C3C=CC(=O)C3CC12 (stereo not given) |  | 9.94 |  | 21.7 |  | 16.5 |  | 13.2 |  | 4.68 |  | 1.95 |  | 7.03 |  | 28.9 |  | 4.92 |  | 33.3 |
| NS(=O)(=O)c1ccc(NC(=O)c2cccc3cc4ccccc4nc23)cc1 |  | > 100 |  | > 100 |  | > 100 |  | > 100 |  | 68.4 |  | > 100 |  | > 100 |  | > 100 |  | > 94.3 |  | > 100 |
| O=C(O)C1CCCCC1c1c2ccc(=O)cc-2oc2cc(O)ccc12 (stereo not given) |  | > 100 |  | 66.7 |  | > 100 |  | 41.3 |  | > 100 |  | 62.1 |  | > 100 |  | > 100 |  | 48.7 |  | 96.5 |
| Cn1c(=O)c(Oc2ccccc2)cc2cnc(NC3CCOCC3)nc21 | > 25 | > 25 | > 25 | > 25 | > 25 | > 25 | > 25 | > 25 | > 25 | > 25 | > 25 | > 25 | > 25 | > 25 | > 25 | > 25 | > 25 | > 25 | > 25 | > 25 |
| CS(=O)(=O)OCCN(CCOS(C)(=O)=O)c1ccc(C=O)cc1 |  | > 69.8 |  | 7.17 |  | 8.36 |  | 43.3 |  | 4.84 |  | 0.553 |  | 75.4 |  | 25.9 |  | 17.4 |  | 7.18 |
| COc1ccc2c(c1)C1(C(=O)N2)C(C#N)=C(c2ccccc2)Nc2c1c(-c1ccccc1)nn2-c1ccccc1 (stereo not given) | 2.28 | 8.03 | 2.71 | 6.82 | 3.51 | 12.5 | 3.57 | 16.4 | 3.37 | 11 | 3.75 | 18.3 | 4.07 | 17.8 | 8.86 | 21.1 | 1.75 | 3.65 | 2.08 | 5.14 |
| COc1ccc(N(C)c2c3ccccc3nc3[nH]c4ccccc4c23)cc1 | 1.24 | 4.39 | 0.675 | 3.69 | 0.268 | 1.02 | 2.19 | 13.5 | 0.0883 | 50 | 4.98 | 9.55 | 0.139 | 0.528 | 0.387 | 2.59 | 0.354 | 1.31 | 0.778 | 4.52 |
| CNCCCNCCCN1C(=O)c2ccc3c4c(ccc(c24)C1=O)C(=O)N(CCCNCc1ccccc1OC)C3=O | 5.03 | 18.7 | 1.05 | 2.39 | 1.93 | 6.42 | 1.45 | 6.04 | 0.534 | 3.55 | 1.23 | 2.83 | 1.64 | 9.44 | 0.894 | 2.39 | 0.782 | 2.29 | 2.95 | 23.7 |
